From US11267815B2, “Class of amino-substituted nitrogen-containing fused ring compounds, preparation method therefor, and use thereof” (SHANGHAI RINGENE BIOPHARMA CO., LTD., priority 2017, dated 2022)
Where two headings read alike, the source gives them in different places.

Experiments:
[1] = ADME tests: liver microsome metabolic stability and direct inhibition test; type: in vitro ADME; settings: metabolic stability, direct inhibition test
Experimental: (1) Metabolic stability test: 150 μL system of liver microsome (final concentration 0.5 mg/mL) was used for metabolic stability incubation, the system contained NADPH (final concentration 1 mM), 1 μM test compound and positive control Midazolam or negative control Atenolol, then the reaction was terminated with Tinidazole-containing acetonitrile at 0 min, 5 min, 10 min and 30 min respectively, and the mixtures were vortexed for 10 minutes and centrifuged for 10 minutes at 15000 rmp, 50 μL of the supernatants were added into 96-well plate for injection. The metabolic stability of the compounds was calculated by measuring the relative reduction of the original drug.
(2) Direct inhibition test (DI test): Direct inhibition incubation was carried out with 100 μL system of human liver microsome (final concentration 0.2 mg/mL), the system containing NADPH (final concentration 1 mM), 10 μM compound, positive inhibitor cocktail (Ketoconazole 10 μM, Quinidine 10 μM, Sulfaphenazolum 100 μM, α-Naphthoflavone 10 μM, Tranylcypromine 1000 μM), negative control (BPS containing 0.1% DMSO) and mixed probe substrates (Midazolam 10 μM, Testosterone 100 μM, Dextromethorphan […], Diclofenac 20 μM, Phenacetin 100 μM, Mephenytoin 100 μM) was incubated for 20 minutes and then the reaction was terminated. The relative activity of enzymes was calculated by measuring the relative production of metabolites.

[2] = test system: EGFR, VEGFR, PDGFR, FGFR, RET, MET, Src, Lyn, Syk, MEK, CDK, RA, ROS; experiment: Inhibitory activities on different kinases (selectivity); type: biochemical; settings: versus different kinases
Experimental: The inhibitory activities of the compounds of the present disclosure on different kinases such as EGFR, VEGFR, PDGFR, FGFR, RET, MET, Src, Lyn, Syk, MEK, CDK, RA, ROS, etc., were also determined.

Hep3B cells = experiment: Hep3B cell proliferation (CellTiter-Glo, 72 hours); type: cell-based; settings: Homo sapiens, Hep3B
Experimental: 1. Test method: inoculating Hep3B cells (ATCC) in logarithmic growth phase at an appropriate density in a 96-well culture plate, with 100 μL per well. After overnight culture, different concentrations of compounds were added to stay for 72 hours, and menstruum control group (negative control) was set, and the incubation was performed under the condition of 5% CO2 at 37° C. Adding 10 mM compound stock solution to the cells, after the cells were incubated with the compounds for 72 hours, the effects of the compounds on cell proliferation were determined by CellTiter-Glo (Promega) method. 30 μL CTG reagent was added to each well and the resulting mixtures were placed in a 37° C. incubator for 2-4 hours. Then the plate was read by a full-wavelength microplate enzyme reader Envision at a […].
The inhibition rates (%) of the compounds on tumor cell growth were calculated by the following formula: inhibition rate (%)=(OD negative control well−OD administration well)/OD negative control well×100%. IC50 values were obtained by four parameters regression using Graphpad Prism 5 software.

FGFR1 = FGFR1 (Homo sapiens (Human), UniProt P11362); experiment: Inhibitory activity on kinase FGFR1 (Caliper mobility shift); type: biochemical
FGFR1, sequence (P11362 22-822): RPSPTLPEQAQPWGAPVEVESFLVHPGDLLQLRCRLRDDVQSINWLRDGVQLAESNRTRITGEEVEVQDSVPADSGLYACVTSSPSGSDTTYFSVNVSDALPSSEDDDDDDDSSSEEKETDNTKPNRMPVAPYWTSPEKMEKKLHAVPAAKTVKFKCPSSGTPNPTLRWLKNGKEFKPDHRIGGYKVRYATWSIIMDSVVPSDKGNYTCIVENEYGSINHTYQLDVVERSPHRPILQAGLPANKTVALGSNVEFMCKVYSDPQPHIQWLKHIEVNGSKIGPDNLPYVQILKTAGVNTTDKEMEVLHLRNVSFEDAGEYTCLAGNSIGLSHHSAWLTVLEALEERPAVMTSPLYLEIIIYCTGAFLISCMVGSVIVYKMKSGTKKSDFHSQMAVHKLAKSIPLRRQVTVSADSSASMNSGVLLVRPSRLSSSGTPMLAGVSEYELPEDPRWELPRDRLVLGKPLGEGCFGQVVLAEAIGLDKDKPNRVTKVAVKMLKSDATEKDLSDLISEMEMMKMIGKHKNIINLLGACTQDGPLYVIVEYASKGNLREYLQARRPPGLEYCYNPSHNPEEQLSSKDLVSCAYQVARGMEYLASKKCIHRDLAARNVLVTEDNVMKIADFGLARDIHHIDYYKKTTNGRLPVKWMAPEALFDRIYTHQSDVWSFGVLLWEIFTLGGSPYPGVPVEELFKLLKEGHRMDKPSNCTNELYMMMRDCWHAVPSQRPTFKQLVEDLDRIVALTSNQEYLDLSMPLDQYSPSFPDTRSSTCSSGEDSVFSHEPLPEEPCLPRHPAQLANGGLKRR
Experimental: (§1) (1). Preparation of 1×Kinase buffer; (2) Preparation of the gradient concentrations of the compounds: the concentration of the compounds to be tested started from 10 μM, which was 3-fold diluted to prepare 10 dilutions, and then tested in duplicated wells. The compounds were 100-fold serially diluted into 10 dilutions with different final concentrations in 96-well plates, each of which was further diluted with 1×Kinase buffer to prepare an intermediate dilution having a concentration of 5 times the final concentration; (3) adding 5 μL of each of the prepared compound solution into the compound wells of 384-well plates, and each concentration set single well; adding 5 μL of 5% DMSO into negative control wells and positive control wells respectively; (4) preparing a kinase solution having a concentration of 2.5 times the final concentration with 1×kinase buffer; (5) adding 10 μL of kinase solution at a concentration of 2.5 times the final concentration into the compound wells and the positive control wells respectively; and adding 10 μL of 1×Kinase buffer into the negative control wells; (6) centrifuging at 1000 rpm for 30 seconds, and incubating at room temperature for 10 minutes after shaking and mixing evenly; (7) preparing a mixed solution of ATP and Kinase substrate 22 having a concentration of 2.5 times the final concentration with 1×Kinase Buffer; (8) adding 10 μL of the mixed solution of ATP and substrate at a concentration of 2.5 times the final concentration to initiate the reaction; (9) Centrifuging the 384-well plates at 1000 rpm for 30 seconds, and incubating at 28° C. for corresponding time respectively after shaking and mixing; (10) adding 30 μL of stop detection solution to stop the kinase reaction, centrifuging at 1000 rpm for 30 seconds, and shaking and mixing the mixture evenly; (11) reading the conversion rate by Caliper Ezreader II. The dose-effect curve was fitted by the log (inhibitor) vs. response-variable slope of GraphPad Prism 5 with the log value of concentration as the X axis and the percentage inhibition rate as the Y axis, then the IC50 value of each compound on the enzyme activity was obtained.

FGFR4 = FGFR4 (Homo sapiens (Human), UniProt P22455); experiment: Inhibitory activity on kinase FGFR4 (Caliper mobility shift); type: biochemical
FGFR4, sequence (P22455 22-802): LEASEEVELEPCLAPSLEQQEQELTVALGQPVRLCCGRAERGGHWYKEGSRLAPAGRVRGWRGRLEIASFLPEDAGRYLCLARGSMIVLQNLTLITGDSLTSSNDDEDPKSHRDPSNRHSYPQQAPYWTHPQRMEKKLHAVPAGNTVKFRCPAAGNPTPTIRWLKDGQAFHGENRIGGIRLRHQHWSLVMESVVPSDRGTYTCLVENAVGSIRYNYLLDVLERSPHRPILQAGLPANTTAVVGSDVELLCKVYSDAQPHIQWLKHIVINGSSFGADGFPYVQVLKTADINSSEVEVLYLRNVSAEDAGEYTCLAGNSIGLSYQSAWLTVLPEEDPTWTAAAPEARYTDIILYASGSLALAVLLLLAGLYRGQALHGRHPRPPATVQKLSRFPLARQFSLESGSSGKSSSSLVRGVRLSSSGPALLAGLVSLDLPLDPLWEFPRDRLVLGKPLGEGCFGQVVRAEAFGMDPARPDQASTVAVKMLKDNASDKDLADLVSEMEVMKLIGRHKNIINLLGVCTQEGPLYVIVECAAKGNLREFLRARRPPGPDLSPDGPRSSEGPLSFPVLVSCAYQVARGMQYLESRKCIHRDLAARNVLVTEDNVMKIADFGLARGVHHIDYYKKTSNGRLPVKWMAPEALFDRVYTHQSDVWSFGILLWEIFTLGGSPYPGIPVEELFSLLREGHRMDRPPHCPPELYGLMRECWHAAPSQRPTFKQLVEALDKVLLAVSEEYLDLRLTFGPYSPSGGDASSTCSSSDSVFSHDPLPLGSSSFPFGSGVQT
Experimental: as §1

[3] = Pharmacokinetics in rats or mice after intragastric and intravenous administration; type: in vivo, SD rats or BALB/c mice; settings: iv 3 mg/kg, intragastric 10 mg/kg
Experimental: (3) LC/MS/MS method was used to measure the drug concentration in plasma at different time points after the embodiment compounds were administered to the rats or mice by intragastric administration and intravenous injection respectively, so as to study the pharmacokinetic behavior of the compounds of the present disclosure in rats or mice and evaluate the pharmacokinetic characteristics thereof. […]

ADME properties [1]: better ADME properties
kinase selectivity [2]: greater than 100 times
IC50 (Hep3B cells; read-out: Hep3B IC50): < 20 nM
IC50 (Hep3B cells; read-out: Hep3B cells inhibitory activity IC50): < 10 nM
IC50 (FGFR1; read-out: FGFR1 IC50): < 20 nM
IC50 (FGFR1; read-out: IC50 of inhibitory activity on FGFR1): < 1 nM
IC50 (FGFR4; read-out: FGFR4 IC50): < 20 nM
IC50 (FGFR4; read-out: IC50 of inhibitory activity on FGFR4): < 1 nM
SMILES: C=CC(=O)N1CCN(CCCc2cn3c(n2)c(-c2c(Cl)c(OC)cc(OC)c2Cl)cc2cnc(NC)nc23)CC1 [Embodiment 3, 1-(4-(3-(6-(2,6-dichloro-3,5-dimethoxyaniline)-2-(methylamine)imidazo[1′,2′:1,6]pyrido[2,3-d]pyrimidin-8-yl)propyl)piperazine-1-yl)prop-2-en-1-one]
absorption and metabolism properties in rats and mice [3]: good absorption and metabolism properties in rats and mice
